Reference: paper PMC4791286, “Puquitinib mesylate, an inhibitor of phosphatidylinositol 3-kinase p110δ, for treating relapsed or refractory non-Hodgkin's lymphoma” (Oncotarget, 2015)
Several values for one entry are separate records, joined by “and”; a condition that tells them apart may be missing. Equal values may be shown once. Where a name gives a salt, the structure may show the parent alone. Read-outs that look alike come from different tables or passages of the source.

Assays:
[1] = tested on: relapsed or refractory non-Hodgkin's lymphoma; experiment: Phase I study, antitumor activity (response, PFS); assay type: in vivo, human
Protocol: This was a phase I open label, dose-escalation study whose primary objective was to characterize the safety of XC-302 in adult Chinese patients with advanced lymphoma administered on a 28-day cycle. Others were to determine the pharmacokinetics (PK) characteristics and anti-tumor activity. The anti-tumor effects of XC-302 were evaluated every 2 cycles with the Standardized Response Criteria of the National Cancer Institute International Working Group (IWG). Efficacy evaluation for CLL was on account of IWCLL criteria while for NHL, it was analyzed by IWG response criteria. Patients with stable disease or partial remission were allowed to continue therapy until progressive disease or toxicity was observed.

[2] = set-up: method as in earlier work; conditions: pre-clinical; ref unpublished information, personal communication with Wei Mao on January 1, 2013; cited from earlier work
PI3K p110α = conditions: read-out: IC50 against PI3K isoform p110α; ref unpublished information, personal communication with Wei Mao on January 1, 2013; cited from earlier work
[3] = tested on: xenografts with cancer of the colon, stomach, or lung; set-up: method as in earlier work; conditions: nude mice, ref unpublished information, personal communication with Wei Mao on January 1, 2013; cited from earlier work
PI3K p110β = conditions: read-out: IC50 against PI3K isoform p110β; ref unpublished information, personal communication with Wei Mao on January 1, 2013; cited from earlier work
PI3K p110γ = tested on: PI3K p110γ; set-up: method as in earlier work; conditions: ref unpublished information, personal communication with Wei Mao on January 1, 2013; read-out: IC50 against PI3K isoform p110γ; cited from earlier work
[4] = tested on: AKT phosphorylation mediated by EGFR; set-up: method as in earlier work; conditions: ref unpublished information, personal communication with Wei Mao on January 1, 2013; cited from earlier work
[5] = tested on: cell lines with drug resistance mediated by p170/MDR-1 / p-Glycoprotein; set-up: method as in earlier work; conditions: p170/MDR-1 / p-Glycoprotein mediated resistance; ref unpublished information, personal communication with Wei Mao on January 1, 2013; cited from earlier work

With c1cnc2ccc(Nc3nc(NC4CC4)c4nc[nH]c4n3)cc2c1 [XC-302, Puquitinib Mesylate] the Complete response ([1]; 25 mg BID, n = 3) was 0 n, the Minor response ([1]; 25 mg BID, n = 3) was 0 n and the Partial response ([1]; 25 mg BID, n = 3) was 0 n. For the same compound, the Progressive disease ([1]; 25 mg BID, n = 3) was 0 n, the Stable disease ([1]; 25 mg BID, n = 3) was 3 n and the Complete response ([1]; 37.5 mg BID, n = 9) was 0 n. It also gave a Minor response ([1]; 37.5 mg BID, n = 9) of 0 n, a Partial response ([1]; 37.5 mg BID, n = 9) of 0 n and a Progressive disease ([1]; 37.5 mg BID, n = 9) of 8 n. For the same compound, the Stable disease ([1]; 37.5 mg BID, n = 9) was 1 n, the Complete response ([1]; 50 mg BID (n = 7)) was 0 n and the Minor response ([1]; 50 mg BID (n = 7)) was 1 n. For the same compound, the Overall response rate ([1]; 50 mg BID (n = 7)) was 2 n, the Partial response ([1]; 50 mg BID (n = 7)) was 1 n and the Progressive disease ([1]; 50 mg BID (n = 7)) was 3 n. It also gave a Stable disease ([1]; 50 mg BID (n = 7)) of 2 n, a Complete response ([1]; All (n = 21; 19 evaluable)) of 0 n and a Minor response ([1]; All (n = 21; 19 evaluable)) of 1 n. The Overall response rate ([1]; All (n = 21; 19 evaluable)) was 2 n, the Partial response ([1]; All (n = 21; 19 evaluable)) was 1 n and the Progressive disease ([1]; All (n = 21; 19 evaluable)) was 11 n. For the same compound, the Stable disease ([1]; All (n = 21; 19 evaluable)) was 6 n, the “Progression free survival (PFS), median (95% CI)” value ([1]; all evaluable patients) was 1.9 (95% CI, 1.7 to 2.0) months and 1.9 months and the “Duration of response, median (range)” value ([1]; printed as for all 19 patients) was 7.1 (6.9 to 7.3) months. The Time to response ([1]; the two responding patients, individual values) was 1.8 months and 1.84 months, the Absolute bioavailability [2] was “high absolute bioavailability” and the Absorption [2] was “rapidly absorbed”. For the same compound, the IC50 (PI3K p110α) was 767 nM, the “Anti-tumor efficacy in xenografts” value [3] was “obvious anti-tumor efficacy” and the IC50 (PI3K p110β) was 699 nM. The IC50 (PI3K p110γ) was 89.7 nM, the IC50 [4] was 100 nM and the “ALT, increased, adverse event, any grade” value (25 mg BID, n = 3) was 2 n. For the same compound, the “Anemia, adverse event, any grade” value (25 mg BID, n = 3) was 1 n, the “Creatinine, increased, adverse event, any grade” value (“Creatinine, increased” for short) (25 mg BID, n = 3) was 1 n and the “Fecal occult blood, adverse event, any grade” value (from here on “Fecal occult blood … any grade”) (25 mg BID, n = 3) was 1 n. For the same compound, the “Hematuresis, adverse event, any grade” value (25 mg BID, n = 3) was 1 n, the “Leukopenia, adverse event, any grade” value (25 mg BID, n = 3) was 1 n and the “Thrombocytopenia, adverse event, any grade” value (“Thrombocytopenia … any grade” below) (25 mg BID, n = 3) was 1 n. For the same compound, the “ALT, increased, adverse event, any grade” value (37.5 mg BID, n = 9) was 5 n, the “AST, increased, adverse event, any grade” value (37.5 mg BID, n = 9) was 1 n and the “Anemia, adverse event, any grade” value (37.5 mg BID, n = 9) was 4 n. The “Anemia, adverse event, grade ≥3” value (37.5 mg BID, n = 9) was 1 n, the “Constipation, adverse event, any grade” value (37.5 mg BID, n = 9) was 1 n and the “Fecal occult blood … any grade” value (37.5 mg BID, n = 9) was 2 n. For the same compound, the “Hematuresis, adverse event, any grade” value (37.5 mg BID, n = 9) was 1 n, the “Leukopenia, adverse event, any grade” value (37.5 mg BID, n = 9) was 1 n and the “Nausea, adverse event, any grade” value (37.5 mg BID, n = 9) was 1 n. The “Neutropenia, adverse event, any grade” value (37.5 mg BID, n = 9) was 2 n, the “Proteinuria, adverse event, any grade” value (37.5 mg BID, n = 9) was 1 n and the “Pyrexia, adverse event, any grade” value (37.5 mg BID, n = 9) was 2 n. For the same compound, the “S-T-segment change, adverse event, any grade” value (“S-T-segment change” for short) (37.5 mg BID, n = 9) was 1 n, the “Thrombocytopenia … any grade” value (37.5 mg BID, n = 9) was 2 n and the “Thrombocytopenia, adverse event, grade ≥3” value (shortened to “Thrombocytopenia … grade ≥3”) (37.5 mg BID, n = 9) was 1 n. For the same compound, the “URI, adverse event, any grade” value (37.5 mg BID, n = 9) was 2 n, the “Patients with dose-limiting toxicity (grade 3 transaminases elevation)” value (50 mg BID group) was “Four” and the “ALT, increased, adverse event, any grade” value (50 mg BID, n = 9) was 7 n. For the same compound, the “ALT, increased, adverse event, grade ≥3” value (50 mg BID, n = 9) was 4 n, the “AST, increased, adverse event, any grade” value (50 mg BID, n = 9) was 6 n and the “AST, increased, adverse event, grade ≥3” value (50 mg BID, n = 9) was 1 n. The “Anemia, adverse event, any grade” value (50 mg BID, n = 9) was 2 n, the “Arrhythmia, adverse event, any grade” value (50 mg BID, n = 9) was 1 n and the “Constipation, adverse event, any grade” value (50 mg BID, n = 9) was 1 n. The “Creatinine, increased” value (50 mg BID, n = 9) was 1 n, the “Diarrhea, adverse event, any grade” value (50 mg BID, n = 9) was 2 n and the “Fecal occult blood … any grade” value (50 mg BID, n = 9) was 1 n. For the same compound, the “Hematuresis, adverse event, any grade” value (50 mg BID, n = 9) was 1 n, the “Leukopenia, adverse event, any grade” value (50 mg BID, n = 9) was 2 n and the “Nausea, adverse event, any grade” value (50 mg BID, n = 9) was 1 n. For the same compound, the “Neutropenia, adverse event, any grade” value (50 mg BID, n = 9) was 3 n, the “Neutropenia, adverse event, grade ≥3” value (50 mg BID, n = 9) was 2 n and the “Peripheral nerve toxicity, adverse event, any grade” value (50 mg BID, n = 9) was 1 n. The “Pyrexia, adverse event, any grade” value (50 mg BID, n = 9) was 2 n, the “Rash, adverse event, any grade” value (50 mg BID, n = 9) was 2 n and the “S-T-segment change” value (50 mg BID, n = 9) was 1 n. For the same compound, the “Thrombocytopenia … any grade” value (50 mg BID, n = 9) was 1 n, the “Thrombocytopenia … grade ≥3” value (50 mg BID, n = 9) was 1 n and the “URI, adverse event, any grade” value (50 mg BID, n = 9) was 2 n. For the same compound, the DLT events (25-mg or 37.5-mg doses) was “No DLT events”, the “ALT, increased, adverse event, any grade” value (Overall) was 14 n and the “ALT, increased, adverse event, grade ≥3” value (Overall) was 4 n. For the same compound, the “AST, increased, adverse event, any grade” value (Overall) was 7 n, the “AST, increased, adverse event, grade ≥3” value (Overall) was 1 n and the “Anemia, adverse event, any grade” value (Overall) was 7 n. The “Arrhythmia, adverse event, any grade” value (Overall) was 1 n, the “Constipation, adverse event, any grade” value (Overall) was 2 n and the “Creatinine, increased” value (Overall) was 2 n. For the same compound, the “Diarrhea, adverse event, any grade” value (Overall) was 2 n, the “Fecal occult blood … any grade” value (Overall) was 4 n and the “Hematuresis, adverse event, any grade” value (Overall) was 3 n. For the same compound, the “Leukopenia, adverse event, any grade” value (Overall) was 4 n, the “Nausea, adverse event, any grade” value (Overall) was 2 n and the “Neutropenia, adverse event, any grade” value (Overall) was 5 n. For the same compound, the “Neutropenia, adverse event, grade ≥3” value (Overall) was 2 n, the “Peripheral nerve toxicity, adverse event, any grade” value (Overall) was 1 n and the “Proteinuria, adverse event, any grade” value (Overall) was 1 n. For the same compound, the “Pyrexia, adverse event, any grade” value (Overall) was 4 n, the “Rash, adverse event, any grade” value (Overall) was 2 n and the “S-T-segment change” value (Overall) was 2 n. The “Thrombocytopenia … any grade” value (Overall) was 4 n, the “Thrombocytopenia … grade ≥3” value (Overall) was 2 n and the “URI, adverse event, any grade” value (Overall) was 4 n. The “Anemia, frequency of AE” value (all 21 patients) was 33.3%, the “Creatinine elevation, frequency of AE” value (all 21 patients) was 9.5% and the “Elevated alanine transaminase (ALT), frequency of AE” value (all 21 patients) was 66.7%. The “Elevated aspartate transaminase (AST), frequency of AE” value (all 21 patients) was 33.3%, the “Fecal occult blood, frequency of AE” value (all 21 patients) was 19.0% and the “Hematuresis, frequency of AE” value (all 21 patients) was 14.3%. The “Myocardial ischemia, frequency of AE” value (all 21 patients) was 9.5%, the “Neutropenia, frequency of AE” value (all 21 patients) was 23.8% and the “Rash, frequency of AE” value (all 21 patients) was 9.5%. The “Thrombocytopenia, frequency of AE” value (all 21 patients) was 19.0%, the “Upper respiratory infection (URI), frequency of AE” value (all 21 patients) was 19.0% and the Drug-related hyperglycemia (all patients) was “no XC302-related hyperglycemia”. For the same compound, the “Maximum tolerated dose (MTD)” value (twice a day, 28-day cycle, NHL patients) was 50 mg and the “Sensitivity of drug-resistant cell lines” value [5] was “similarly sensitive”.
